Data on 32 molecules can be found in patent publication US7951829B2, “Benzimidazole modulators of VR1” (Janssen Pharmaceutica NV, priority 2006, dated 2011).

As usually defined, the IC50 is the concentration that gives 50% inhibition. A word on the inhibition: it is the change of the read-out against control, counted positive when it falls.

This assay concerns the target T1, hVR1 (Homo sapiens, UniProt Q8NER1).
T1 construct: expressed in transfected cells; host or cells: HEK293
Nature of the assay: Human VR1 (hVR1) Functional Assay (FLIPR intracellular calcium, capsaicin challenge). The assay is classed as cell-based. Conditions: capsaicin 0.030 μM, HEK293 cells expressing hVR1; for inhibition at 1 µM: test concentration 1 μM. (In general: Calcium assays in cells follow changes in intracellular calcium, usually with a dye or a luminescent sensor.)

T1 sequence (Q8NER1 whole entry): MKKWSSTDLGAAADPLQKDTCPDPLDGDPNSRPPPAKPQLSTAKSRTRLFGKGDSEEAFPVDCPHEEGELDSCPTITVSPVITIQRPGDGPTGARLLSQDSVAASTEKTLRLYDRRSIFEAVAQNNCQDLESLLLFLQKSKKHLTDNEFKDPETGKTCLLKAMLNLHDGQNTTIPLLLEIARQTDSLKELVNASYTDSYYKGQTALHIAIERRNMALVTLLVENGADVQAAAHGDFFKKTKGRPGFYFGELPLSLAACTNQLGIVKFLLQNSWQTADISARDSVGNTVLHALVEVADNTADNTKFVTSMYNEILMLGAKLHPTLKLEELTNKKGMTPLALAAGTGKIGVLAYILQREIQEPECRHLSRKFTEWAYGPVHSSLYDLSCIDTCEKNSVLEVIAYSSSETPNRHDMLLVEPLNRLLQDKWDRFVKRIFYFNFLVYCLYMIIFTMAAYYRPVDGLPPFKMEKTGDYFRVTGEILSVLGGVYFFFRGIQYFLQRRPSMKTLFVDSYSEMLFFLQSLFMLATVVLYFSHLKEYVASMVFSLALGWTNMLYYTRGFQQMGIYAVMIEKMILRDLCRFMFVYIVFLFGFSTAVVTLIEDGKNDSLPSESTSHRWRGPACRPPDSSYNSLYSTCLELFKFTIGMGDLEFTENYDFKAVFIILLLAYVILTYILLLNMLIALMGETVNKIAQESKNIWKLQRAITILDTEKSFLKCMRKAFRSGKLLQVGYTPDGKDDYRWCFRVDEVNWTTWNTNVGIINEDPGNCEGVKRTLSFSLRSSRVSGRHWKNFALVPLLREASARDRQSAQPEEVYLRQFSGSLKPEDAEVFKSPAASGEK

Turning to `CNS(=O)(=O)c1ccccc1-c1ccc2[nH]c(/C=C/c3ccccc3C(F)(F)F)nc2c1` [Cpd 343, (E)-N-methyl-2-{2-[2-(2-trifluoromethyl-phenyl)-vinyl]-1H-benzimidazol-5-yl}-benzenesulfonamide], the 50% inhibitory concentration (IC50) turned out to be 243 nM and the inhibition at 1 µM was 82%.

Consider `CNS(=O)(=O)c1ccccc1-c1ccc2[nH]c(/C=C/c3cccc(OC(F)(F)F)c3)nc2c1` [Cpd 344, (E)-N-methyl-2-{2-[2-(3-trifluoromethoxy-phenyl)-vinyl]-1H-benzimidazol-5-yl}-benzenesulfonamide], for which the IC50 stood at 24 nM and the inhibition at 1 µM is 101%.

Regarding `CNS(=O)(=O)c1ccccc1-c1ccc2[nH]c(/C=C/c3ccc(OC(F)(F)F)cc3)nc2c1` [Cpd 345, (E)-N-methyl-2-{2-[2-(4-trifluoromethoxy-phenyl)-vinyl]-1H-benzimidazol-5-yl}-benzenesulfonamide], the IC50 amounted to 13 nM and the inhibition at 1 µM was found to be 101%.

Take `CNS(=O)(=O)c1ccccc1-c1ccc2[nH]c(/C=C/c3ccccc3Cl)nc2c1` [Cpd 346, (E)-2-{2-[2-(2-chloro-phenyl)-vinyl]-1H-benzimidazol-5-yl}-N-methyl-benzenesulfonamide]: the half-maximal inhibitory concentration (IC50) was 264 nM and the inhibition at 1 µM worked out at 87%.

Take `CNS(=O)(=O)c1ccccc1-c1ccc2[nH]c(/C=C/c3ccc(Cl)cc3)nc2c1` [Cpd 347, (E)-2-{2-[2-(4-chloro-phenyl)-vinyl]-1H-benzimidazol-5-yl}-N-methyl-benzenesulfonamide]: the IC50 was found to be 44 nM and the inhibition at 1 µM is 100%.

On to `CNS(=O)(=O)c1ccccc1-c1ccc2[nH]c(/C=C/c3ccccc3Br)nc2c1` [Cpd 348, (E)-2-{2-[2-(2-bromo-phenyl)-vinyl]-1H-benzimidazol-5-yl}-N-methyl-benzenesulfonamide], for which the concentration for half-maximal inhibition (IC50) amounted to 162 nM and the inhibition at 1 µM was 86%.

With `CNS(=O)(=O)c1ccccc1-c1ccc2[nH]c(/C=C/c3ccc(F)cc3F)nc2c1` [Cpd 349, (E)-2-{2-[2-(2,4-difluoro-phenyl)-vinyl]-1H-benzimidazol-5-yl}-N-methyl-benzenesulfonamide], the IC50 was found to be 59 nM and the inhibition at 1 µM was determined as 99%.

`CNS(=O)(=O)c1ccccc1-c1ccc2[nH]c(CCc3cccc(C(F)(F)F)c3)nc2c1` [Cpd 350, N-methyl-2-{2-[2-(3-trifluoromethyl-phenyl)-ethyl]-1H-benzimidazol-5-yl}-benzenesulfonamide]: the concentration for half-maximal inhibition (IC50) is 33 nM and the inhibition at 1 µM turned out to be 100%.

As for `CNS(=O)(=O)c1ccccc1-c1ccc2[nH]c(/C=C/c3ccc(S(C)(=O)=O)cc3)nc2c1` [Cpd 351, (E)-2-{2-[2-(4-methanesulfonyl-phenyl)-vinyl]-1H-benzimidazol-5-yl}-N-methyl-benzenesulfonamide], the IC50 was above 500 nM.

As for `NS(=O)(=O)c1ccccc1-c1ccc2[nH]c(/C=C/c3ccc(F)cc3F)nc2c1` [Cpd 357, (E)-2-{2-[2-(2,4-difluoro-phenyl)-vinyl]-1H-benzimidazol-5-yl}-benzenesulfonamide], the IC50 was 8 nM and the inhibition at 1 µM turned out to be 100%.

`NS(=O)(=O)c1ccccc1-c1ccc2[nH]c(/C=C/c3ccc(F)c(F)c3)nc2c1` [Cpd 358, (E)-2-{2-[2-(3,4-difluoro-phenyl)-vinyl]-1H-benzimidazol-5-yl}-benzenesulfonamide]: the IC50 was 9 nM and the inhibition at 1 µM came out at 99%.

For the molecule `NS(=O)(=O)c1ccccc1-c1ccc2[nH]c(/C=C/c3cccc(F)c3F)nc2c1` [Cpd 359, (E)-2-{2-[2-(2,3-difluoro-phenyl)-vinyl]-1H-benzimidazol-5-yl}-benzenesulfonamide], the half-maximal inhibitory concentration (IC50) turned out to be 24 nM and the inhibition at 1 µM amounted to 98%.

Regarding `NS(=O)(=O)c1ccccc1-c1ccc2[nH]c(/C=C/c3cc(F)ccc3F)nc2c1` [Cpd 360, (E)-2-{2-[2-(2,5-difluoro-phenyl)-vinyl]-1H-benzimidazol-5-yl}-benzenesulfonamide], the IC50 was 46 nM and the inhibition at 1 µM was 98%.

Consider `NS(=O)(=O)c1ccccc1-c1ccc2[nH]c(/C=C/c3cc(F)cc(F)c3)nc2c1` [Cpd 361, (E)-2-{2-[2-(3,5-difluoro-phenyl)-vinyl]-1H-benzimidazol-5-yl}-benzenesulfonamide], for which the IC50 amounted to 27 nM and the inhibition at 1 µM was determined as 97%.

Take `NS(=O)(=O)c1ccccc1-c1ccc2[nH]c(/C=C/c3cccc(OC(F)(F)F)c3)nc2c1` [Cpd 362, (E)-2-{2-[2-(3-trifluoromethoxy-phenyl)-vinyl]-1H-benzimidazol-5-yl}-benzenesulfonamide]: the half-inhibitory concentration (IC50) was found to be 8 nM and the inhibition at 1 µM was 99%.

For `NS(=O)(=O)c1ccccc1-c1ccc2[nH]c(/C=C/c3ccc(Br)cc3)nc2c1` [Cpd 363, (E)-2-{2-[2-(4-bromo-phenyl)-vinyl]-1H-benzimidazol-5-yl}-benzenesulfonamide], the IC50 is 12 nM and the inhibition at 1 µM was determined as 98%.

For the molecule `NS(=O)(=O)c1ccccc1-c1ccc2[nH]c(/C=C/c3ccccc3C(F)(F)F)nc2c1` [Cpd 364, (E)-2-{2-[2-(2-trifluoromethyl-phenyl)-vinyl]-1H-benzimidazol-5-yl}-benzenesulfonamide], the concentration for half-maximal inhibition (IC50) is 65 nM and the inhibition at 1 µM turned out to be 97%.

For `NS(=O)(=O)c1ccccc1-c1ccc2[nH]c(/C=C/c3ccccc3Cl)nc2c1` [Cpd 365, (E)-2-{2-[2-(2-chloro-phenyl)-vinyl]-1H-benzimidazol-5-yl}-benzenesulfonamide], the concentration for half-maximal inhibition (IC50) is 17 nM and the inhibition at 1 µM is 99%.

Take `NS(=O)(=O)c1ccccc1-c1ccc2[nH]c(/C=C/c3ccccc3Br)nc2c1` [Cpd 366, (E)-2-{2-[2-(2-bromo-phenyl)-vinyl]-1H-benzimidazol-5-yl}-benzenesulfonamide]: the IC50 was 35 nM and the inhibition at 1 µM was found to be 99%.

As to `NS(=O)(=O)c1ccccc1-c1ccc2[nH]c(/C=C/c3ccc(F)cc3C(F)(F)F)nc2c1` [Cpd 367, (E)-2-{2-[2-(4-fluoro-2-trifluoromethyl-phenyl)-vinyl]-1H-benzimidazol-5-yl}-benzenesulfonamide], the IC50 was determined as 53 nM and the inhibition at 1 µM is 98%.

Turning to `NS(=O)(=O)c1ccccc1-c1ccc2[nH]c(/C=C/c3cccc(C(F)(F)F)c3F)nc2c1` [Cpd 368, (E)-2-{2-[2-(2-fluoro-3-trifluoromethyl-phenyl)-vinyl]-1H-benzimidazol-5-yl}-benzenesulfonamide], the IC50 turned out to be 15 nM and the inhibition at 1 µM is 99%.

With `NS(=O)(=O)c1ccccc1-c1ccc2[nH]c(/C=C/c3ccc(F)c(C(F)(F)F)c3)nc2c1` [Cpd 369, (E)-2-{2-[2-(4-fluoro-3-trifluoromethyl-phenyl)-vinyl]-1H-benzimidazol-5-yl}-benzenesulfonamide], the IC50 came to 8 nM and the inhibition at 1 µM was found to be 99%.

Regarding `NS(=O)(=O)c1ccccc1-c1ccc2[nH]c(/C=C/c3ccc(F)c(F)c3F)nc2c1` [Cpd 370, (E)-2-{2-[2-(2,3,4-trifluoro-phenyl)-vinyl]-1H-benzimidazol-5-yl}-benzenesulfonamide], the concentration for half-maximal inhibition (IC50) stood at 13 nM and the inhibition at 1 µM stood at 98%.

On to `NS(=O)(=O)c1ccccc1-c1ccc2[nH]c(/C=C/c3cc(F)c(F)cc3F)nc2c1` [Cpd 371, (E)-2-{2-[2-(2,4,5-trifluoro-phenyl)-vinyl]-1H-benzimidazol-5-yl}-benzenesulfonamide], for which the IC50 is 18 nM and the inhibition at 1 µM worked out at 98%.

Turning to `NS(=O)(=O)c1ccccc1-c1ccc2[nH]c(/C=C/c3c(F)cccc3F)nc2c1` [Cpd 372, (E)-2-{2-[2-(2,6-difluoro-phenyl)-vinyl]-1H-benzimidazol-5-yl}-benzenesulfonamide], the concentration for half-maximal inhibition (IC50) stood at 71 nM and the inhibition at 1 µM was found to be 97%.

As for `NS(=O)(=O)c1ccccc1-c1ccc2[nH]c(/C=C/c3cc(C(F)(F)F)cc(C(F)(F)F)c3)nc2c1` [Cpd 373, (E)-2-{2-[2-(3,5-bis-trifluoromethyl-phenyl)-vinyl]-1H-benzimidazol-5-yl}-benzenesulfonamide], the 50% inhibitory concentration (IC50) was 20 nM and the inhibition at 1 µM is 99%.

On to `NS(=O)(=O)c1ccccc1-c1ccc2[nH]c(/C=C/c3cc(C(F)(F)F)ccc3C(F)(F)F)nc2c1` [Cpd 374, (E)-2-{2-[2-(2,5-bis-trifluoromethyl-phenyl)-vinyl]-1H-benzimidazol-5-yl}-benzenesulfonamide], for which the IC50 was found to be 34 nM and the inhibition at 1 µM is 99%.

Consider `CS(=O)(=O)c1cc(Cl)ccc1/C=C/c1nc2cc(-c3ccccc3S(N)(=O)=O)ccc2[nH]1` [Cpd 375, (E)-2-{2-[2-(4-chloro-2-methanesulfonyl-phenyl)-vinyl]-1H-benzimidazol-5-yl}-benzenesulfonamide], for which the IC50 was 139 nM and the inhibition at 1 µM was 97%.

`NS(=O)(=O)c1ccccc1-c1ccc2[nH]c(/C=C/c3cccc(Br)c3)nc2c1` [Cpd 376, (E)-2-{2-[2-(3-bromo-phenyl)-vinyl]-1H-benzimidazol-5-yl}-benzenesulfonamide]: the IC50 was determined as 28 nM and the inhibition at 1 µM stood at 100%.

`NS(=O)(=O)c1ccccc1-c1ccc2[nH]c(/C=C/c3ccc(Cl)c(C(F)(F)F)c3)nc2c1` [Cpd 378, (E)-2-{2-[2-(4-chloro-3-trifluoromethyl-phenyl)-vinyl]-1H-benzimidazol-5-yl}-benzenesulfonamide]: the IC50 was 12 nM and the inhibition at 1 µM was 100%.

As to `NS(=O)(=O)c1ccccc1-c1ccc2[nH]c(/C=C/c3cc(Br)ccc3F)nc2c1` [Cpd 379, (E)-2-{2-[2-(5-bromo-2-fluoro-phenyl)-vinyl]-1H-benzimidazol-5-yl}-benzenesulfonamide], the concentration for half-maximal inhibition (IC50) is 40 nM and the inhibition at 1 µM is 99%.

As for `NS(=O)(=O)c1ccccc1-c1ccc2[nH]c(/C=C/c3ccc(SC(F)(F)F)cc3)nc2c1` [Cpd 380, (E)-2-{2-[2-(4-trifluoromethylsulfanyl-phenyl)-vinyl]-1H-benzimidazol-5-yl}-benzenesulfonamide], the IC50 amounted to 12 nM and the inhibition at 1 µM worked out at 99%.
